Tests used:
[1] = Plasma levels after oral administration; type: in vivo
Ratten = test: Rat swim test (Porsolt), antidepressant effect; type: in vivo; conditions: rats
Protocol: Die vorzügliche Eignung von N-Methyl-Nimodipin als Prodrug für Nimodipin zeigt sich auch in seiner antidepressiven Wirkung. Im Rattenschwimmtest (vgl. R.D. Porsolt et al., European Journal of Pharmacology 47; 379 bis 391) zeigen Ratten, die 20 mg der erfindungsgemäßen Verbindung per os appliziert bekommen, eine um ca. 20 % reduzierte Immobilitätsphase im Vergleich zur Kontrolle (n = 6).

| SMILES | Plasmaspiegel von Nimodipin und bekannten Nimodipinmetaboliten ([1]; oral administration of N-Methyl-nimodipin, after 15 minutes, compared with plasma levels after multiple administration of corresponding amounts of Nimodipin) | Plasmakonzentration an unverändertem N-Methyl-Nimodipin ([1]; oral administration, same time point (15 minutes), relative to the plasma levels of Nimodipin and metabolites) | reduzierte Immobilitätsphase im Vergleich zur Kontrolle (Ratten; 20 mg per os, n = 6) | Immobilitätsphase im Rattenschwimmtest, in words (Ratten; corresponding amount of Nimodipin, compared with N-Methyl-Nimodipin) |
| --- | --- | --- | --- | --- |
| COCCOC(=O)C1=C(C)N(C)C(C)=C(C(=O)OC(C)C)C1c1cccc([N+](=O)[O-])c1 (racemic) [N-Methyl-nimodipin, (±)-1,2,6-Trimethyl-4-(3-nitrophenyl)-1,4-dihydropyridin-3,5-dicarbonsäure-isopropyl-2-methoxyethyl-ester] | mindestens so hoch sind wie die entsprechenden Plasmaspiegel nach Mehrfachapplikation entsprechender Nimodipinmengen | etwa doppelt so hohe Plasmakonzentration | ca. 20% | – |
| COCCOC(=O)C1=C(C)NC(C)=C(C(=O)OC(C)C)C1c1cccc([N+](=O)[O-])c1 (racemic) [Nimodipin, (±)2,6-Dimethyl-4-(3-nitrophenyl)-1,4-dihydropyridin-3,5-dicarbonsäure-isopropyl-2-methoxyethyl-ester] | – | – | – | vergleichbare Ergebnisse |
